According to patent publication US9833497B2, “Human originated EGF domain proteins and use of the same” (CHENGDU SOURCEBIO LIMITED-LIABILITY COMPANY, priority 2013, dated 2017):

Columns and labels:
Format in all cases: cell-based
E. coli DH5α = experiment: Antibacterial activity: MIC and growth curve against E. coli DH5α in 96-well plate; settings: minimal inhibitory concentration against E. coli DH5α; 96-well plate, 5×10^5 CFU/mL, 37° C., judged after 8 h
Experimental: 1. E. coli DH5α was exemplified. E. coli DH5α was streaked and cultured on LB solid medium. Then, a typical clone was picked and inoculated into common LB liquid medium, cultured at 37° C. with shaking at 185 rpm until the logarithmic growth phase was reached (OD600 of about 0.5). The bacterial culture was centrifuged at 4000×g for 3 min, the supernatant was discarded, and the thalli were resuspended with fresh LB medium.
2. The above-mentioned bacterial suspension was diluted and inoculated into a 96-well plate with the total volume of 100 μL per well and a bacterial count of 5×10^5 CFU/mL.
3. The recombinant protein hF VII-EGF1 was added to the above-mentioned wells with the final protein concentration in the well of the highest protein concentration being 50 μg/mL. Basing on this final concentration, a two-fold serial dilution was performed till a protein concentration gradient consisting of 50, 25, and 12.5 μg/mL was set up. Three parallel wells were set up for each concentration in the gradient.
4. The above-mentioned 96-well plate was placed and cultured at 37° C. in shaking incubator shaking at 175 rpm. Samples were taken every 30 min, the absorbance values were determined at 600 nm wavelength under a ultra violet spectrophotometer, and an inhibition curve was plotted. […] The minimal inhibitory concentration MIC is defined as the lowest concentration of the recombinant protein at which there is no growth of the bacteria.
According to the experimental procedures in Example 14, the minimal inhibitory concentrations (MIC, μg/mL) of the other human-originated EGF domain proteins (PRT2 to PRT1498 in Table 1) for E. coli DH5α were determined.

E. coli BL21 = experiment: MIC against Gram-negative bacteria: E. coli BL21
Experimental: (§1) 1. Gram-negative bacteria, such as E. coli BL21, Pseudomonas aeruginosa, Klebsiella pneumonia, Enterobacter cloacae, Aeromonas hydrophila, Citrobacter diversus, Moraxella catarrhalis, Proteus mirabilis, Proteus vulgaris, Serratia marcescens, etc were streaked on solid LB medium and cultured respectively. Then, typical clones were picked, inoculated into common liquid LB medium respectively, and cultured at 37° C. with shaking at 185 rpm until the McFarland specific turbidity was 0.5. The bacterial culture of each of Gram-negative bacteria was centrifuged at 4000×g for 3 min, the supernatant was discarded, and the thalli were resuspended with fresh LB medium.
(§2) 2. The above-mentioned bacterial suspensions were diluted and inoculated into 96-well plates with the final concentration of the bacterial suspension being 5×10^5 CFU/mL per well.
(§3) 3. Each of the purified human-originated EGF domain proteins (PRT1 to PRT1498 in Table 1) was added to each of the above wells and subjected to two-fold serial dilution in concentration. Three parallel wells were set up for each concentration in the gradient.
(§4) 4. The above-mentioned 96-well plates were placed and cultured at 37° C. in shaking incubator shaking at 175 rpm. […] The minimal inhibitory concentration MIC is defined as the lowest concentration of the recombinant protein at which there is no growth of the bacteria.

Pseudomonas aeruginosa = experiment: MIC against Gram-negative bacteria: Pseudomonas aeruginosa
Experimental: as §1, §2, §3, §4

Klebsiella pneumonia = experiment: MIC against Gram-negative bacteria: Klebsiella pneumonia
Experimental: as §1, §2, §3, §4

Enterobacter cloacae = experiment: MIC against Gram-negative bacteria: Enterobacter cloacae
Experimental: as §1, §2, §3, §4

Aeromonas hydrophila = experiment: MIC against Gram-negative bacteria: Aeromonas hydrophila
Experimental: as §1, §2, §3, §4

Citrobacter diversus = experiment: MIC against Gram-negative bacteria: Citrobacter diversus
Experimental: as §1, §2, §3, §4

Moraxella catarrhalis = experiment: MIC against Gram-negative bacteria: Moraxella catarrhalis
Experimental: as §1, §2, §3, §4

Proteus mirabilis = experiment: MIC against Gram-negative bacteria: Proteus mirabilis
Experimental: as §1, §2, §3, §4

Proteus vulgaris = experiment: MIC against Gram-negative bacteria: Proteus vulgaris
Experimental: as §1, §2, §3, §4

Serratia marcescens = experiment: MIC against Gram-negative bacteria: Serratia marcescens
Experimental: as §1, §2, §3, §4

[1] = 96-well plate, 5×10^5 CFU/mL, 37° C., 10 h

PRT715 (DIDECSSGFPCSQQCINTYGTYKCLCTDGYEIQPDNPNGCK; listed as Homo sapiens)
MIC (E. coli DH5α): 50 µg/mL | MIC E. coli BL21 (E. coli BL21; [1]): 50 µg/mL | MIC P. aeruginosa (Pseudomonas aeruginosa; [1]): 25 µg/mL | MIC K. pneumonia (Klebsiella pneumonia; [1]): 12.5 µg/mL | MIC E. cloacae (Enterobacter cloacae; [1]): 50 µg/mL | MIC A. hydrophila (Aeromonas hydrophila; [1]): 12.5 µg/mL | MIC C. diversus (Citrobacter diversus; [1]): 50 µg/mL | MIC M. catarrhalis (Moraxella catarrhalis; [1]): 12.5 µg/mL | MIC P. mirabilis (Proteus mirabilis; [1]): 25 µg/mL | MIC P. vulgaris (Proteus vulgaris; [1]): 50 µg/mL | MIC S. marcescens (Serratia marcescens; [1]): 12.5 µg/mL

PRT20 (QKNLCNNTGDPEMCPENGSCVPDGPGLLQCVCADGFHGYKCM; listed as Homo sapiens)
MIC (E. coli DH5α): 12.5 µg/mL | MIC (μg/mL) E. coli BL21 (E. coli BL21; E. coli BL21, 96-well plate, 5×10^5 CFU/mL, 37° C., 10 h): 25 µg/mL | MIC (μg/mL) P. aeruginosa (Pseudomonas aeruginosa; Pseudomonas aeruginosa, 96-well plate, 5×10^5 CFU/mL, 37° C., 10 h): 50 µg/mL | MIC (μg/mL) K. pneumonia (Klebsiella pneumonia; Klebsiella pneumonia, 96-well plate, 5×10^5 CFU/mL, 37° C., 10 h): 25 µg/mL | MIC (μg/mL) E. cloacae (Enterobacter cloacae; Enterobacter cloacae, 96-well plate, 5×10^5 CFU/mL, 37° C., 10 h): 12.5 µg/mL | MIC (μg/mL) A. hydrophila (Aeromonas hydrophila; Aeromonas hydrophila, 96-well plate, 5×10^5 CFU/mL, 37° C., 10 h): 50 µg/mL | MIC (μg/mL) C. diversus (Citrobacter diversus; Citrobacter diversus, 96-well plate, 5×10^5 CFU/mL, 37° C., 10 h): 25 µg/mL | MIC (μg/mL) M. catarrhalis (Moraxella catarrhalis; Moraxella catarrhalis, 96-well plate, 5×10^5 CFU/mL, 37° C., 10 h): 12.5 µg/mL | MIC (μg/mL) P. mirabilis (Proteus mirabilis; Proteus mirabilis, 96-well plate, 5×10^5 CFU/mL, 37° C., 10 h): 50 µg/mL | MIC (μg/mL) P. vulgaris (Proteus vulgaris; Proteus vulgaris, 96-well plate, 5×10^5 CFU/mL, 37° C., 10 h): 25 µg/mL | MIC (μg/mL) S. marcescens (Serratia marcescens; Serratia marcescens, 96-well plate, 5×10^5 CFU/mL, 37° C., 10 h): 12.5 µg/mL

PRT895 (NIDECAGNPCHNGGTCEDGINGFTCRCPEGYHDPTCL; listed as Homo sapiens)
MIC (E. coli DH5α): 50 µg/mL | MIC (E. coli BL21; E. coli BL21, 10 h cultivation at 37° C.): 25 µg/mL | MIC (Pseudomonas aeruginosa; P. aeruginosa, 10 h cultivation at 37° C.): 12.5 µg/mL | MIC (Klebsiella pneumonia; K. pneumonia, 10 h cultivation at 37° C.): 50 µg/mL | MIC (Enterobacter cloacae; E. cloacae, 10 h cultivation at 37° C.): 12.5 µg/mL | MIC (Aeromonas hydrophila; A. hydrophila, 10 h cultivation at 37° C.): 50 µg/mL | MIC (Citrobacter diversus; C. diversus, 10 h cultivation at 37° C.): 12.5 µg/mL | MIC (Moraxella catarrhalis; M. catarrhalis, 10 h cultivation at 37° C.): 50 µg/mL | MIC (Proteus mirabilis; P. mirabilis, 10 h cultivation at 37° C.): 12.5 µg/mL | MIC (Proteus vulgaris; P. vulgaris, 10 h cultivation at 37° C.): 25 µg/mL | MIC (Serratia marcescens; S. marcescens, 10 h cultivation at 37° C.): 25 µg/mL

PRT871 (CYCNPLGSIHDRCNGSGFCECKTGTTGPKCDECLPGNSWHYGCQPNVCDN; listed as Homo sapiens)
MIC (E. coli DH5α): 12.5 µg/mL | MIC (μg/mL) E. coli BL21 (E. coli BL21; E. coli BL21, 10 h cultivation at 37° C., 5×10^5 CFU/mL): 25 µg/mL | MIC (μg/mL) P. aeruginosa (Pseudomonas aeruginosa; P. aeruginosa, 10 h cultivation at 37° C., 5×10^5 CFU/mL): 50 µg/mL | MIC (μg/mL) K. pneumonia (Klebsiella pneumonia; K. pneumonia, 10 h cultivation at 37° C., 5×10^5 CFU/mL): 12.5 µg/mL | MIC (μg/mL) E. cloacae (Enterobacter cloacae; E. cloacae, 10 h cultivation at 37° C., 5×10^5 CFU/mL): 12.5 µg/mL | MIC (μg/mL) A. hydrophila (Aeromonas hydrophila; A. hydrophila, 10 h cultivation at 37° C., 5×10^5 CFU/mL): 12.5 µg/mL | MIC (μg/mL) C. diversus (Citrobacter diversus; C. diversus, 10 h cultivation at 37° C., 5×10^5 CFU/mL): 12.5 µg/mL | MIC (μg/mL) M. catarrhalis (Moraxella catarrhalis; M. catarrhalis, 10 h cultivation at 37° C., 5×10^5 CFU/mL): 25 µg/mL | MIC (μg/mL) P. mirabilis (Proteus mirabilis; P. mirabilis, 10 h cultivation at 37° C., 5×10^5 CFU/mL): 12.5 µg/mL | MIC (μg/mL) P. vulgaris (Proteus vulgaris; P. vulgaris, 10 h cultivation at 37° C., 5×10^5 CFU/mL): 50 µg/mL | MIC (μg/mL) S. marcescens (Serratia marcescens; S. marcescens, 10 h cultivation at 37° C., 5×10^5 CFU/mL): 12.5 µg/mL

PRT1424 (CQMFCNQTACPADCDPNTQASCECPEGYILDDGFICT; listed as Homo sapiens)
MIC (E. coli DH5α): 50 µg/mL | MIC against E. coli BL21 (E. coli BL21; E. coli BL21, 5×10^5 CFU/mL, 10 h cultivation at 37° C.): 12.5 µg/mL | MIC against P. aeruginosa (Pseudomonas aeruginosa; Pseudomonas aeruginosa, 5×10^5 CFU/mL, 10 h cultivation at 37° C.): 50 µg/mL | MIC against K. pneumonia (Klebsiella pneumonia; Klebsiella pneumonia, 5×10^5 CFU/mL, 10 h cultivation at 37° C.): 12.5 µg/mL | MIC against E. cloacae (Enterobacter cloacae; Enterobacter cloacae, 5×10^5 CFU/mL, 10 h cultivation at 37° C.): 50 µg/mL | MIC against A. hydrophila (Aeromonas hydrophila; Aeromonas hydrophila, 5×10^5 CFU/mL, 10 h cultivation at 37° C.): 12.5 µg/mL | MIC against C. diversus (Citrobacter diversus; Citrobacter diversus, 5×10^5 CFU/mL, 10 h cultivation at 37° C.): 25 µg/mL | MIC against M. catarrhalis (Moraxella catarrhalis; Moraxella catarrhalis, 5×10^5 CFU/mL, 10 h cultivation at 37° C.): 50 µg/mL | MIC against P. mirabilis (Proteus mirabilis; Proteus mirabilis, 5×10^5 CFU/mL, 10 h cultivation at 37° C.): 25 µg/mL | MIC against P. vulgaris (Proteus vulgaris; Proteus vulgaris, 5×10^5 CFU/mL, 10 h cultivation at 37° C.): 12.5 µg/mL | MIC against S. marcescens (Serratia marcescens; Serratia marcescens, 5×10^5 CFU/mL, 10 h cultivation at 37° C.): 25 µg/mL
